Some test systems named below: DLD-1; HCC 2998; SF-539; HT-29; SR; UACC-62; CCRF-CEM; HOP-92; SF-295; OVCAR-4; UO-31; SK-OV-3; K562; SK-MEL-5; RPMI-8226; SF-268; HCT-15.
Common to all, as to assay: NCI-60 cell line screen, 48 h

The record followed here is ChEMBL document CHEMBL1201862, “PubChem BioAssay data set” (2004).

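In this assay, cells in 96-well plates receive the compound at five concentrations for 48 hours. Endpoints are linearly interpolated between the surrounding concentrations. The concentration for 50% growth inhibition is given as GI50.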 The source made the active and inactive calls. Rule as the data show it: active = GI50 up to about 1.1 µM and inactive = higher.

On to `CN(O)C(=O)c1ccccc1`, for which the GI50 with DLD-1, with HCC 2998, in the test on SF-539, in the test with HT-29, with SR and in the test on UACC-62 was > 100 µM (inactive) each time. Further, the GI50 in the test on CCRF-CEM, in the test on HOP-92, with SF-295, in the test with OVCAR-4, with UO-31 and with SK-OV-3 was > 100 µM (inactive) in each case. For the same compound, the GI50 with K562, in the test on SK-MEL-5, in the test with RPMI-8226 and with SF-268 was > 100 µM (inactive) throughout.
Turning to `COc1ccc(-c2onc(-c3ccc([N+](=O)[O-])cc3)c2C2=NCCCN2)cc1`, the GI50 was > 100 µM (inactive) in the test with DLD-1; > 100 µM (inactive) in the test on HCC 2998; > 100 µM (inactive) in the test with SF-539; 40.3 µM (inactive) in the test on HT-29; 45.4 µM (inactive) with SR; more than 100 µM in the test with HCT-15. Moreover, the GI50 with UACC-62 is > 100 µM (inactive); in the test on CCRF-CEM it was > 100 µM (inactive); with SF-295 it was 53.2 µM (inactive); with OVCAR-4 it was > 100 µM (inactive); with UO-31 it was 18.4 µM (inactive); in the test with K562, 70.3 µM (inactive). The GI50 was 30.2 µM (inactive) in the test on SK-MEL-5, > 100 µM (inactive) in the test on RPMI-8226 and > 100 µM (inactive) in the test with SF-268.
For the compound `O=C(O)Cc1cc(=O)[nH]c2c1/C(=N/O)CCC2`, the GI50 was > 100 µM (inactive) in the test with DLD-1; > 100 µM (inactive) with HCC 2998; > 100 µM (inactive) in the test with SF-539; > 100 µM (inactive) with HT-29; > 100 µM (inactive) in the test on SR; more than 100 µM with HCT-15. Moreover, the GI50 in the test on CCRF-CEM, with HOP-92, in the test on SF-295, in the test on UO-31, in the test on SK-OV-3 and in the test with K562 was > 100 µM (inactive) each time. Also, the GI50 in the test on SK-MEL-5, in the test on RPMI-8226 and with SF-268 was > 100 µM (inactive) each time.
In the case of `CCOC(=O)c1sc(Nc2cc(Cl)ccc2Cl)nc1C`, the GI50 with DLD-1 is 44.7 µM (inactive); in the test with HCC 2998, > 100 µM (inactive); in the test on SF-539, > 100 µM (inactive); in the test with HT-29, 50.2 µM (inactive); in the test with SR, 52.5 µM (inactive); in the test with HCT-15 it was 67.8 µM. For the same compound, the GI50 in the test with HOP-92 was 22.6 µM (inactive); in the test with SF-295, 64 µM (inactive); in the test on OVCAR-4 it was > 100 µM (inactive); in the test with UO-31, > 100 µM (inactive); in the test with K562, 42.9 µM (inactive); in the test with RPMI-8226, 53.2 µM (inactive). Besides, in the test on SF-268, the GI50 is > 100 µM (inactive).
In the case of `C=C1C2Oc3ccccc3C1N(c1ccccc1)O2` (centres undefined), the GI50 in the test on DLD-1 is 26.7 µM (inactive); in the test with HCC 2998, 31 µM (inactive); with SF-539, 23.8 µM (inactive); with HT-29, 23 µM (inactive); in the test on SR it was 30.5 µM (inactive); in the test on HCT-15, 20.8 µM. Moreover, the GI50 was 21.3 µM (inactive) in the test with CCRF-CEM; 23.1 µM (inactive) in the test with SF-295; 20 µM (inactive) in the test on OVCAR-4; 47.9 µM (inactive) in the test on UO-31; 64.3 µM (inactive) with SK-OV-3; 27.4 µM (inactive) with K562. Besides, the figures for the GI50 in the test with RPMI-8226 and in the test with SF-268 were 23.7 µM (inactive) and 28.8 µM (inactive), respectively.
Regarding `CCCCCCCCCCNC(=S)OC`, the GI50 with DLD-1 was 36.8 µM (inactive); in the test with HCC 2998, 43.6 µM (inactive); with SF-539, 64.7 µM (inactive); in the test with HT-29, 34.3 µM (inactive); in the test on SR, 13.7 µM (inactive); in the test on HCT-15 it was 24.4 µM. In addition, the GI50 is 25 µM (inactive) with UACC-62; 24.3 µM (inactive) with CCRF-CEM; 13.4 µM (inactive) in the test with HOP-92; 55.5 µM (inactive) in the test with SF-295; 47.2 µM (inactive) with OVCAR-4; 15.8 µM (inactive) in the test on UO-31. The GI50 is > 100 µM (inactive) with SK-OV-3; 29.2 µM (inactive) in the test with K562; 23 µM (inactive) in the test with SK-MEL-5; 13.2 µM (inactive) in the test on RPMI-8226; 63 µM (inactive) in the test with SF-268.
Turning to `O=C(O)/C(Cl)=C(\Cl)C(=O)c1ccccc1`, the GI50 is > 100 µM (inactive) with DLD-1; > 100 µM (inactive) in the test with HCC 2998; > 100 µM (inactive) in the test on SF-539; > 100 µM (inactive) in the test on HT-29; > 100 µM (inactive) in the test on SR; more than 100 µM with HCT-15. The GI50 with UACC-62, in the test with CCRF-CEM, in the test with HOP-92, in the test on SF-295, in the test on OVCAR-4 and with UO-31 was > 100 µM (inactive) in each case. Besides, the GI50 in the test with SK-OV-3, in the test with K562, in the test with SK-MEL-5 and with SF-268 was > 100 µM (inactive) each time.
For `Cc1ccc([N+](=O)[O-])cc1NC(=O)C(=O)Cc1occc(=O)c1O`, the GI50 in the test on DLD-1 was > 100 µM (inactive); in the test with HCC 2998 it was > 100 µM (inactive); in the test on SF-539 it was > 100 µM (inactive); with HT-29 it was > 100 µM (inactive); in the test with SR, > 100 µM (inactive); in the test on HCT-15, more than 100 µM. In addition, the GI50 with UACC-62, with CCRF-CEM, in the test with HOP-92, in the test on SF-295, with UO-31 and in the test with SK-OV-3 was > 100 µM (inactive) each time. Further, the GI50 with K562, in the test with SK-MEL-5, in the test with RPMI-8226 and in the test with SF-268 was > 100 µM (inactive) throughout.
Consider `CC1=C(C(=O)NCc2ccccc2)C(c2ccc(C3C(C(=O)NCc4ccccc4)=C(C)NC(C)=C3C(=O)NCc3ccccc3)cc2)C(C(=O)NCc2ccccc2)=C(C)N1`, for which the GI50 is 3.44 µM (inactive) in the test with DLD-1; 17.1 µM (inactive) in the test with HCC 2998; 2.13 µM (inactive) with SF-539; 5.61 µM (inactive) with HT-29; 2.3 µM (inactive) in the test with SR; 16.1 µM with HCT-15. In addition, the GI50 was 7.91 µM (inactive) in the test on UACC-62; 3.39 µM (inactive) in the test on CCRF-CEM; 17.8 µM (inactive) with HOP-92; 17.9 µM (inactive) in the test with SF-295; 15.2 µM (inactive) in the test on OVCAR-4; 21.2 µM (inactive) in the test on UO-31. Moreover, the GI50 with K562 is 5.93 µM (inactive); in the test on SK-MEL-5, 16.1 µM (inactive); with RPMI-8226, 6.65 µM (inactive); with SF-268 it was 15.1 µM (inactive).
Consider `CC(C)(C)OC(=O)NC(Cc1ccccc1)C(=S)N1CCCC1` (centres undefined), for which the GI50 in the test with DLD-1 is 62.4 µM (inactive); with HCC 2998, > 100 µM (inactive); with SF-539, > 100 µM (inactive); in the test on HT-29, 85.7 µM (inactive); in the test with HCT-15, 75.5 µM; in the test with UACC-62 it was > 80.4 µM (inactive). Further, the GI50 in the test with CCRF-CEM is 69.2 µM (inactive); in the test with HOP-92, 31.7 µM (inactive); in the test with SF-295, 95.3 µM (inactive); with OVCAR-4, 86.3 µM (inactive); with UO-31, 40.4 µM (inactive); in the test on SK-OV-3 it was > 100 µM (inactive). For the same compound, the GI50 was 78.3 µM (inactive) with K562, 57 µM (inactive) in the test on SK-MEL-5, 31.1 µM (inactive) in the test on RPMI-8226 and > 100 µM (inactive) in the test with SF-268.
